How the values were obtained:
[1] = target: T1, Prostaglandin G/H synthase 1 (Ovis aries, UniProt P05979); experiment: In vitro inhibitory activity against ovine cyclooxygenase 1
T1 sequence (P05979 whole entry): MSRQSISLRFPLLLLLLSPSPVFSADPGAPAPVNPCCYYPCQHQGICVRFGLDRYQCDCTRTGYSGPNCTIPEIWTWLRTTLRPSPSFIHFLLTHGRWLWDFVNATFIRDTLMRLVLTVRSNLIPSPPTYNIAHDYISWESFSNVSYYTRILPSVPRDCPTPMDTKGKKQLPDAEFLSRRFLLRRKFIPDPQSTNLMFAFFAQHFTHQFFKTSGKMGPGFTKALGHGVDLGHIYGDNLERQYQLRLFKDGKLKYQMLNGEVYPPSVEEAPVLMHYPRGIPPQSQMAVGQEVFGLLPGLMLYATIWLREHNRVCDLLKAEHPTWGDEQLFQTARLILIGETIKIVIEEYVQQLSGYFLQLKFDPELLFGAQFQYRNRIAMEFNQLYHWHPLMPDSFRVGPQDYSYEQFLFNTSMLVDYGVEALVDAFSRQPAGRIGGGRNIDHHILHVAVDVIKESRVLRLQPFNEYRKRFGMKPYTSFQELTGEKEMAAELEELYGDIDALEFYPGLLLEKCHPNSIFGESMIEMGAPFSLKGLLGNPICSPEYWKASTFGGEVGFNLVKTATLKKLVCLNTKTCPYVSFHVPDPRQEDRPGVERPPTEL

[2] = target: T2, Seed linoleate 13S-lipoxygenase-1 (Glycine max, UniProt P08170)
T2 sequence (P08170 whole entry): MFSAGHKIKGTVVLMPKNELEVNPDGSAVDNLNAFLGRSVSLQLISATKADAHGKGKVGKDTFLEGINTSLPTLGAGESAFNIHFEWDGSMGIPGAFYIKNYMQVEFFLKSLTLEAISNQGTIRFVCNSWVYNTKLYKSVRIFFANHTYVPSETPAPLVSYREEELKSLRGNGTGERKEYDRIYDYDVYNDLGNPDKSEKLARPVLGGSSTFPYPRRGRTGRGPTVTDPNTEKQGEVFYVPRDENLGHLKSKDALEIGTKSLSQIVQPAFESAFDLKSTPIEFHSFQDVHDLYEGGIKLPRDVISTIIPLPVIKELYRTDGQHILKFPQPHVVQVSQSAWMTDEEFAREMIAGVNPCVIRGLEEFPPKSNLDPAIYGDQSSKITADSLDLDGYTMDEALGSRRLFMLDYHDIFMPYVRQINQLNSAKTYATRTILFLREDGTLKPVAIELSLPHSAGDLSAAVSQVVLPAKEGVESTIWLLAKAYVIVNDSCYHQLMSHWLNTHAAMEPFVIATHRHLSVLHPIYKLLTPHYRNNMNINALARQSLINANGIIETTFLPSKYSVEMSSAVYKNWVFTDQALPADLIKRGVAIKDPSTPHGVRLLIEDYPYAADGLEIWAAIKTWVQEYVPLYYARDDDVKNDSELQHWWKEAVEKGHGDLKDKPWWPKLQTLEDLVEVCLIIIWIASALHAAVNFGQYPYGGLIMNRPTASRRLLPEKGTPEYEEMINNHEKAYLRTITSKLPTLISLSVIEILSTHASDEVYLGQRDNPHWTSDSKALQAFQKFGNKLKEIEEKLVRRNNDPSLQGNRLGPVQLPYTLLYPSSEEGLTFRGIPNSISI
Description: In vitro inhibitory activity against 15-lipoxygenase obtained from soybean

[3] = target: T2, Seed linoleate 13S-lipoxygenase-1; remark: listed apart in the source
Description: In vitro inhibitory activity against 5-lipoxygenase obtained from potato

In the case of `CS(=O)(=O)c1ccc(C#CC(=O)c2ccccc2)cc1`, the IC50 [1] is reported as 1 µM and the IC50 [2] is reported as > 10 µM.

With `CS(=O)(=O)c1ccc(C#CC(=O)c2ccc(C(F)(F)F)cc2)cc1` the IC50 [1] was 3.1 µM, the IC50 [3] was > 10 µM and the IC50 [2] was > 10 µM.

For `CS(=O)(=O)c1ccc(C#CC(=O)c2ccc(O)cc2)cc1`, the IC50 [1] was 3.5 µM, the IC50 [3] was 0.3 µM and the IC50 [2] was 0.32 µM.

For `COc1cccc(C(=O)C#Cc2ccc(S(C)(=O)=O)cc2)c1`, the IC50 [1] was > 100 µM, the IC50 [3] was 9 µM and the IC50 [2] was > 10 µM.

With `COc1cc(C(=O)C#Cc2ccc(S(C)(=O)=O)cc2)cc(OC)c1OC` the IC50 [1] was > 100 µM, the IC50 [3] was 7 µM and the IC50 [2] was > 10 µM.

In the case of `Cc1ccc(C(=O)C#Cc2ccc(S(C)(=O)=O)cc2)cc1`, the IC50 [1] is reported as > 100 µM, the IC50 [3] is reported as > 10 µM and the IC50 [2] is reported as > 10 µM.

With `COc1ccc(C(=O)C#Cc2ccc(S(C)(=O)=O)cc2)cc1O` the IC50 [1] was 1 µM, the IC50 [3] was > 10 µM and the IC50 [2] was 0.3 µM.

With `CS(=O)(=O)c1ccc(C#CC(=O)c2ccc(F)c(F)c2)cc1` the IC50 [1] was 3.1 µM, the IC50 [3] was 0.4 µM and the IC50 [2] was 3.2 µM.

`CS(=O)(=O)c1ccc(C#CC(=O)c2ccc(C#N)cc2)cc1` was tested, and the IC50 [1] was 31.5 µM.

`CS(=O)(=O)c1ccc(C#CC(=O)c2cccc(O)c2)cc1` was tested, and the IC50 [1] was > 100 µM, the IC50 [3] was 0.3 µM and the IC50 [2] was 0.5 µM.

In the case of `COc1ccc(C(=O)C#Cc2ccc(S(C)(=O)=O)cc2)cc1`, the IC50 [3] is reported as > 10 µM and the IC50 [2] is reported as 3.5 µM.

In the case of `COc1cc(C(=O)C#Cc2ccc(S(C)(=O)=O)cc2)ccc1O`, the IC50 [1] is reported as 1.1 µM, the IC50 [3] is reported as > 10 µM and the IC50 [2] is reported as 0.1 µM.

With `CS(=O)(=O)c1ccc(C#CC(=O)c2ccc(F)cc2)cc1` the IC50 [1] was 30 µM, the IC50 [3] was > 10 µM and the IC50 [2] was 1 µM.

`O=c1cc(-c2ccc(O)c(O)c2)oc2cc(O)cc(O)c12` [LUTEOLIN] showed an IC50 [2] of 3.2 µM.
